Data as given in publication PMC9851200, “Multiparameter phenotypic screening for endogenous TFEB and TFE3 translocation identifies novel chemical series modulating lysosome function” (Autophagy, 2022).

Columns and labels:
Type in all cases: binding
[1] = target: kinases (KINOMEscan panel) (Homo sapiens, UniProt O00750); conditions: PIK3C2B; NEW KINOMEscan
[2] = target: T1, kinases (KINOMEscan panel) (Homo sapiens, UniProt O14757); conditions: CHEK1; NEW KINOMEscan
T1 sequence (O14757 1-476): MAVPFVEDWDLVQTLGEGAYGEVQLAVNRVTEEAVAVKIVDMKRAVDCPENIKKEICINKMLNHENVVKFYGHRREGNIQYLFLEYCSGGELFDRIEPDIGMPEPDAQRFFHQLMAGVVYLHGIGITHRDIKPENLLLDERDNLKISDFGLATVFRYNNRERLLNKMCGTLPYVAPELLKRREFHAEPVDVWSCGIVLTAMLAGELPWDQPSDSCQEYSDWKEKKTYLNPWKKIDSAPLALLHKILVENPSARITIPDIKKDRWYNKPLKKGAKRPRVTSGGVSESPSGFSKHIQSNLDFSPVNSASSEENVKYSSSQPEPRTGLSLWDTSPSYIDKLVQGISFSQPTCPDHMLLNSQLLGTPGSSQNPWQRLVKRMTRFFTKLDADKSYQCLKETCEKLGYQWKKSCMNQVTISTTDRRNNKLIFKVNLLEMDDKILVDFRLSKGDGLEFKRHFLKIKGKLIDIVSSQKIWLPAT

[3] = target: T2, kinases (KINOMEscan panel) (Homo sapiens, UniProt P15735); conditions: kinase PHKG2; NEW KINOMEscan
T2 sequence (P15735 1-406): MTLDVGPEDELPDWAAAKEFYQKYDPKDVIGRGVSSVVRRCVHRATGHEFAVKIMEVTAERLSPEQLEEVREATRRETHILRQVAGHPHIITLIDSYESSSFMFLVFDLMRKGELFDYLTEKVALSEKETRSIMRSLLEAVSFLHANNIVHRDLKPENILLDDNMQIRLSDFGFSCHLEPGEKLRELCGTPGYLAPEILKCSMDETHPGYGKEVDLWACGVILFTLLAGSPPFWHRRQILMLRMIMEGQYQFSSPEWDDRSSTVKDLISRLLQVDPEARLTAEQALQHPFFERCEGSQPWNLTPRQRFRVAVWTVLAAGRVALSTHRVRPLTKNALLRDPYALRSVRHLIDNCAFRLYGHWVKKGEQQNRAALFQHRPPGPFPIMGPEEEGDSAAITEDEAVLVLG

[4] = target: T3, kinases (KINOMEscan panel) (Homo sapiens, UniProt Q8NG66); conditions: NEW KINOMEscan
T3 sequence (Q8NG66 1-645): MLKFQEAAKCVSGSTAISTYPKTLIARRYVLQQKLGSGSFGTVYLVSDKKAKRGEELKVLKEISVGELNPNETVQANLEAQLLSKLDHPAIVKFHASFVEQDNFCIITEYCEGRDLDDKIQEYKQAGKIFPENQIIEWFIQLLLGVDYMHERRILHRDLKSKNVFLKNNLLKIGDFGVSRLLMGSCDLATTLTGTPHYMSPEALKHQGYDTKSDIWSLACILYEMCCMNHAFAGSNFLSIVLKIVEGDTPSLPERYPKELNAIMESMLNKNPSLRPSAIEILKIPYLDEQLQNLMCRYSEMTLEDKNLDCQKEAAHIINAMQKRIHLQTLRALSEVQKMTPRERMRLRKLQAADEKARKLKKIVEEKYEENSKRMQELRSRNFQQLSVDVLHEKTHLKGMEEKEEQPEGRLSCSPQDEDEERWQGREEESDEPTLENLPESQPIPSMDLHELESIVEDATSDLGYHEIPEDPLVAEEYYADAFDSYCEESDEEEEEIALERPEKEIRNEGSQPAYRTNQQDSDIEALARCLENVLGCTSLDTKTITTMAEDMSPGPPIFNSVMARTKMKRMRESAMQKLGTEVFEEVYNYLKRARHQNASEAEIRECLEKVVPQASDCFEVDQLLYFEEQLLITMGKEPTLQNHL

[5] = target: kinases (KINOMEscan panel) (Homo sapiens, UniProt Q99558); conditions: kinase MAP3K14; NEW KINOMEscan
[6] = target: T4, kinases (KINOMEscan panel) (Homo sapiens, UniProt Q9HBY8); conditions: NEW KINOMEscan
T4 sequence (Q9HBY8 1-367): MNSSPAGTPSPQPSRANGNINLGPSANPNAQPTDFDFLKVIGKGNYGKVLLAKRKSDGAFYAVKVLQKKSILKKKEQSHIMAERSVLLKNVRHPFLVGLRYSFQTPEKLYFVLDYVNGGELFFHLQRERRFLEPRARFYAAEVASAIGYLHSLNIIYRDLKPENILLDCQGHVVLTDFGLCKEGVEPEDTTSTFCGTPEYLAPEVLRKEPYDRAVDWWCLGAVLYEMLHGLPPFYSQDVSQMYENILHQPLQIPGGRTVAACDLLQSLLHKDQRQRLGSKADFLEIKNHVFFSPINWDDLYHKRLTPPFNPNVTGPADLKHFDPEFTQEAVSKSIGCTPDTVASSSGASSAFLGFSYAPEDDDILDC

[7] = target: kinases (KINOMEscan panel) (Homo sapiens, UniProt Q9P286); conditions: kinase PAK5; NEW KINOMEscan
[8] = target: kinases (KINOMEscan panel) (Plasmodium falciparum, UniProt P61075); conditions: PFPK5(P.falciparum); NEW KINOMEscan
Sequence of kinases (KINOMEscan panel) (Plasmodium falciparum, UniProt P61075) (P61075 whole entry): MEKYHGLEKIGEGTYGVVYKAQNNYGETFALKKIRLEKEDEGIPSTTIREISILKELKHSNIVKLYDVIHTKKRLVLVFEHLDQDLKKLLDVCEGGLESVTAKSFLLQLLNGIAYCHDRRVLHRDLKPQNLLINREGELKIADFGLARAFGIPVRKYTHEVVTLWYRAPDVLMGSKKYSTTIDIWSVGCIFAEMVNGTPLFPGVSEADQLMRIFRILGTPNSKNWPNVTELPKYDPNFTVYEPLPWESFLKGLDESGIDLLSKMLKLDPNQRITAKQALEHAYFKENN

Sequence of kinases (KINOMEscan panel) (Homo sapiens, UniProt Q99558) (Q99558 whole entry): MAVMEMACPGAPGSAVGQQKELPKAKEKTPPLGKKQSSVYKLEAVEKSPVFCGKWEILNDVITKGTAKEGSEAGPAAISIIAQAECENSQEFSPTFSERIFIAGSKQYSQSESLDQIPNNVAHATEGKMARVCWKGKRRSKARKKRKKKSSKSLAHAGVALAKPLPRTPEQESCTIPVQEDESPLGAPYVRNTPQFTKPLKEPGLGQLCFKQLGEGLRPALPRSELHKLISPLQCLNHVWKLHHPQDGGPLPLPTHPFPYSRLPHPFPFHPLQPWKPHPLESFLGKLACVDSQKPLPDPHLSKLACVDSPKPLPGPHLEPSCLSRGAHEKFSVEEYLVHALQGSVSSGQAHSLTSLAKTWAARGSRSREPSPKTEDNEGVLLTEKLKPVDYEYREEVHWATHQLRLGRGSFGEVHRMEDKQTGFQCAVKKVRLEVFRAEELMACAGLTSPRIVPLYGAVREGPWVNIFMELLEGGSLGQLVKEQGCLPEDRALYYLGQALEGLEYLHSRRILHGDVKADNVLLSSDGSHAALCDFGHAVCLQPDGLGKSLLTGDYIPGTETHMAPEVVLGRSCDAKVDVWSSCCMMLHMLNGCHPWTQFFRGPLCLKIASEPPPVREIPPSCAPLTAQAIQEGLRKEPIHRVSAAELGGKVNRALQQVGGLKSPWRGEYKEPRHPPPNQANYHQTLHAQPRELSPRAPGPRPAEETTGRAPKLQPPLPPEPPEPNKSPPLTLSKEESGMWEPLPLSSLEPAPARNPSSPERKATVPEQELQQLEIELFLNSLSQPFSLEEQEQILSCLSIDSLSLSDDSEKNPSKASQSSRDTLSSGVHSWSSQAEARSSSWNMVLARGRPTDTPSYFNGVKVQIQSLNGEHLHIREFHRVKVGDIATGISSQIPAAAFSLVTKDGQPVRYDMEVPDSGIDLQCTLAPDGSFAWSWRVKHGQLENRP
Sequence of kinases (KINOMEscan panel) (Homo sapiens, UniProt O00750) (O00750 whole entry): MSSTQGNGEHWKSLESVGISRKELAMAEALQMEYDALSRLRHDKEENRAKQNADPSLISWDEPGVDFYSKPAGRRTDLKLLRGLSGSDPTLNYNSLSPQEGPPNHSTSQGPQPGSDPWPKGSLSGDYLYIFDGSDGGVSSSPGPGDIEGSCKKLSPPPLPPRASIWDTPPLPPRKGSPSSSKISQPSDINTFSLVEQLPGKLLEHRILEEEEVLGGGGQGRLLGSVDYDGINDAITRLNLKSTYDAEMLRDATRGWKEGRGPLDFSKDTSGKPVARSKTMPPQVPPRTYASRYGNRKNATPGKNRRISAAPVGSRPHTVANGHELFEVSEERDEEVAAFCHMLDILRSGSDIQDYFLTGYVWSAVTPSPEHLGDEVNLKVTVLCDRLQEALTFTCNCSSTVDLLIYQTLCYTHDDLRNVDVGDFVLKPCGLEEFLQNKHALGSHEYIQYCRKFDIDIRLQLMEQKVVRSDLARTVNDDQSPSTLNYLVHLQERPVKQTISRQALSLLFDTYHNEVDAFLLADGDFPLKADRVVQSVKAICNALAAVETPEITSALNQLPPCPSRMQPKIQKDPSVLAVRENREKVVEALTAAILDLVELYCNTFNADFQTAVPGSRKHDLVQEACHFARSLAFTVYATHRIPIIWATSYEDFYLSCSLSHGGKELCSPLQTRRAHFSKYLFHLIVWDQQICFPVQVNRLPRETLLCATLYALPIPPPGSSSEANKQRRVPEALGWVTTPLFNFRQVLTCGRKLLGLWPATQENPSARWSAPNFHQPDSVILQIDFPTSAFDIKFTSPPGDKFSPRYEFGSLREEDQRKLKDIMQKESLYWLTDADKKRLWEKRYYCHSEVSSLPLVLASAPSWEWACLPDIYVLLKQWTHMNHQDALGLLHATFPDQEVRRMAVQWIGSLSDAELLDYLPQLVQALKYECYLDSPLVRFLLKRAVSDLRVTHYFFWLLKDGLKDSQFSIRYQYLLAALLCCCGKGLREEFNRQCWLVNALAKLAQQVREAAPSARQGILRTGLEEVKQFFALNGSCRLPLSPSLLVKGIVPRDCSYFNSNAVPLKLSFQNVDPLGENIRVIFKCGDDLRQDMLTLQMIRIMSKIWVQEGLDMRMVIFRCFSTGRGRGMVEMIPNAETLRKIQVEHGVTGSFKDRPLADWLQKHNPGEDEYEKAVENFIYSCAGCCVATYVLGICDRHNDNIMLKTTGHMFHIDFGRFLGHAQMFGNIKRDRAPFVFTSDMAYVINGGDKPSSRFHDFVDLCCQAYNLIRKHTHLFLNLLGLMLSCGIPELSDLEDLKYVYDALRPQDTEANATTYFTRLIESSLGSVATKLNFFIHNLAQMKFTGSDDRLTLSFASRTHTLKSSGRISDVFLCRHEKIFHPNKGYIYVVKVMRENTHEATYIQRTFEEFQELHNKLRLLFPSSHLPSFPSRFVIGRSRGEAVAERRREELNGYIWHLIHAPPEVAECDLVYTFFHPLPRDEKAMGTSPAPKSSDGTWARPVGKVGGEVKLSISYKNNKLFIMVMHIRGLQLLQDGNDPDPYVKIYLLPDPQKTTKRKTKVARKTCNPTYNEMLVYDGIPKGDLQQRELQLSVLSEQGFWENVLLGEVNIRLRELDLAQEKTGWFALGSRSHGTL
Sequence of kinases (KINOMEscan panel) (Homo sapiens, UniProt Q9P286) (Q9P286 whole entry): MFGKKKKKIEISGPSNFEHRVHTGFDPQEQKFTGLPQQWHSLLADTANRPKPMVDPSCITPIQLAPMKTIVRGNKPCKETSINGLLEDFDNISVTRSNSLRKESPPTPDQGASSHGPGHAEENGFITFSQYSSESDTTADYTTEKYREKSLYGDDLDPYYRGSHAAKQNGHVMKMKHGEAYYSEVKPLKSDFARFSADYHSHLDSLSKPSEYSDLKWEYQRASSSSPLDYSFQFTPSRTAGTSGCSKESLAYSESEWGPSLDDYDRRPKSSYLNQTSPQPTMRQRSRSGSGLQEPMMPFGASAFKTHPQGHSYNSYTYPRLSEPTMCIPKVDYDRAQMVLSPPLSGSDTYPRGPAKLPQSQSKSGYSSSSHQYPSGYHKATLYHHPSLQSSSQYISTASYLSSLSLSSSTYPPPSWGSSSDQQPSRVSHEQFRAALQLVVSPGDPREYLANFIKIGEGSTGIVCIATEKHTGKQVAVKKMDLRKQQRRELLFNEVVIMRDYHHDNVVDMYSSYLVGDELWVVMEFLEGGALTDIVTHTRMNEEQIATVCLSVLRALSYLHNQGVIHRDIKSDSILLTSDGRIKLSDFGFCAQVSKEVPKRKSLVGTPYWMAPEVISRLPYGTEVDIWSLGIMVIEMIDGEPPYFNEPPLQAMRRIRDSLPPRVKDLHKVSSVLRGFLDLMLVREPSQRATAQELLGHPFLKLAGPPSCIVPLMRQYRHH

## Cc1cccc(-c2nc(Nc3ccc4nn(C)cc4c3)c3ccccc3n2)n1 [NK167]
[1]
  KINOMEscan PIK3C2B: 0
[2]
  KINOMEscan CHEK1: 2
[3]
  KINOMEscan PHKG2: 0
[4]
  KINOMEscan NEK11: 0
[5]
  KINOMEscan MAP3K14: 0
[6]
  KINOMEscan SGK2: 0
[7]
  KINOMEscan PAK5: 0
[8]
  KINOMEscan PFPK5(P.falciparum): 0

## Cc1cccc(-c2nc(N(C)c3ccc4ncsc4c3)c3ccccc3n2)n1 [NK-161]
[1]
  KINOMEscan PIK3C2B: 0
[2]
  KINOMEscan CHEK1: 3
[3]
  KINOMEscan PHKG2: 0
[4]
  KINOMEscan NEK11: 2
[5]
  KINOMEscan MAP3K14: 2
[6]
  KINOMEscan SGK2: 15
[7]
  KINOMEscan PAK5: 2
[8]
  KINOMEscan PFPK5(P.falciparum): 0
